Read-outs that look alike come from different tables or passages of the source. The star is where a group is joined. Biotin = O=C1N[C@H]2[C@H](CS[C@H]2CCCCC(=O)*)N1
T1: His6-RORγt-LBD (Homo sapiens, UniProt P51449)
T1 sequence (P51449 265-518): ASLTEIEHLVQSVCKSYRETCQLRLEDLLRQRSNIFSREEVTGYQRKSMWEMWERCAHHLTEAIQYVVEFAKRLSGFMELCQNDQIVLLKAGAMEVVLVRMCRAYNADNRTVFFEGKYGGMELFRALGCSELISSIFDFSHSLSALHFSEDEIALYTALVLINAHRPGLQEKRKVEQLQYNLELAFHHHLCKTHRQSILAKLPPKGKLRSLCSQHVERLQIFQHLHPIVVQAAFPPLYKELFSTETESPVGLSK

T2: His6-RORγt-LBD (human retinoic acid receptor-related orphan receptor γt ligand binding domain, residues … (human, UniProt P51449-1 265-518))
T2 sequence (looked up): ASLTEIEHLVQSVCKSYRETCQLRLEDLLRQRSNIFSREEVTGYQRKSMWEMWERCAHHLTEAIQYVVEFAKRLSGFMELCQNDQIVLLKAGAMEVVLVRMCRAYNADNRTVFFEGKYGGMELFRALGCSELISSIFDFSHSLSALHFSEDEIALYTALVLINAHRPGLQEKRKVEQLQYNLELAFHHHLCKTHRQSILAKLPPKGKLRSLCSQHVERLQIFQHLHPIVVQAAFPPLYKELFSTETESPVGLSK


Experiments:
[1] = Plasma stability; type: in vitro ADME; conditions: 5 μM, 100% plasma, 1 h, 37 °C
[2] = target: T1, His6-RORγt-LBD
[3] = Chemical stability; type: physicochemical; conditions: 2 μM, aqueous buffer pH 7.4
[4] = PAMPA; type: in vitro ADME; conditions: 500 μM donor, 20 h
[5] = target: T1, His6-RORγt-LBD; type: biochemical; conditions: for improvement in potency compared to phenyl 19: vs 19, coactivator recruitment IC50
[6] = Microsomal stability phase II; type: in vitro ADME, human; conditions: 5 μM, UDPGA, 1 h, 37 °C
[7] = Plasma protein binding; type: in vitro ADME; conditions: 5 μM, equilibrium dialysis 6 h, 37 °C
[8] = target: T2, His6-RORγt-LBD (human retinoic acid …); assay: AlphaScreen or HTRF

Row | Molecule | plasma stability (% remain) [1] | chemical stability (% remain) [3] | PAMPA (% flux) [4] | microsomal stability phase 2 (% remain) [6] | plasma protein binding (% bound) [7] | also measured
1 | O=C(O)c1ccc(NCc2c(-c3c(Cl)cccc3C(F)(F)F)noc2-c2cccc3ccccc23)cc1 [compound 26, 4-[({3-[2-Chloro-6-(trifluoromethyl)phenyl]-5-(naphthalen-1-yl)-1,2-oxazol-4-yl}methyl)amino]benzoic Acid] |  |  |  |  |  | IC50 (TR-FRET coactivator recruitment) ([5]; RORγt LBD, SRC-1 box2 peptide, triplicate): no IC50 curve could be fitted
2 | O=C(O)c1ccc(-c2nn(C(=O)c3c(Cl)cccc3C(F)(F)F)c3ccccc23)cc1 [compound 3, MRL-871, reference compound] | 100 % remain | 81.0 % remain | 23.7 % flux | 47.1 % remain | 99.9 % bound | 
3 | C[C@H]1O[C@@H](O[C@H]2[C@@H](O)C[C@H](O[C@H]3[C@@H](O)C[C@H](O[C@H]4CC[C@@]5(C)[C@H](CC[C@@H]6[C@@H]5C[C@@H](O)[C@]5(C)[C@@H](C7=CC(=O)OC7)CC[C@]65O)C4)O[C@@H]3C)O[C@@H]2C)C[C@H](O)[C@@H]1O [compound 1, digoxin, reference compound] |  |  |  |  |  | Hill slope ([2]; 0 μM cholesterol): –0.76 ± 0.05; Hill slope ([2]; 0.25 μM cholesterol): –0.77 ± 0.03; Hill slope ([2]; 1.0 μM cholesterol): –1.01 ± 0.06
4 | O=C(O)c1ccc(NC(=O)c2c(-c3c(Cl)cccc3C(F)(F)F)noc2-c2ccccc2)cc1 [compound 8, 4-{3-[2-Chloro-6-(trifluoromethyl)phenyl]-5-phenyl-1,2-oxazole-4-amido}benzoic Acid] | 99.9 % remain | 95.4 % remain | 60.1 % flux | 100 % remain | 97.8 % bound | 
5 | O=C(O)c1ccc(CNC(=O)c2c(-c3c(Cl)cccc3C(F)(F)F)noc2-c2ccccc2)cc1 [compound 18, 4-[({3-[2-Chloro-6-(trifluoromethyl)phenyl]-5-phenyl-1,2-oxazol-4-yl}formamido)methyl]benzoic Acid] |  |  |  |  |  | increase in potency compared to the initial hit ([5]; vs 8, TR-FRET IC50): 6 fold
6 | Biotin-PSSHSSLTARHKILHRLLQEGSPSD-NH2 (SMILES CC[C@H](C)[C@H](NC(=O)[C@H](CCCCN)NC(=O)[C@H](Cc1c[nH]cn1)NC(=O)[C@H](CCCNC(=N)N)NC(=O)[C@H](C)NC(=O)[C@@H](NC(=O)[C@H](CC(C)C)NC(=O)[C@H](CO)NC(=O)[C@H](CO)NC(=O)[C@H](Cc1c[nH]cn1)NC(=O)[C@H](CO)NC(=O)[C@H](CO)NC(=O)[C@@H]1CCCN1C(=O)CCCC[C@@H]1SC[C@@H]2NC(=O)N[C@@H]21)[C@@H](C)O)C(=O)N[C@@H](CC(C)C)C(=O)N[C@@H](Cc1c[nH]cn1)C(=O)N[C@@H](CCCNC(=N)N)C(=O)N[C@@H](CC(C)C)C(=O)N[C@@H](CC(C)C)C(=O)N[C@@H](CCC(N)=O)C(=O)N[C@@H](CCC(=O)O)C(=O)NCC(=O)N[C@@H](CO)C(=O)N1CCC[C@H]1C(=O)N[C@@H](CO)C(=O)N[C@@H](CC(=O)O)C(N)=O) [N-terminal biotinylated SRC-1 box2 peptide] |  |  |  |  |  | binding result [8]: binds

The next lines start with results.

Row | plasma stability (% remain) [1] | chemical stability (% remain) [3] | PAMPA (% flux) [4] | microsomal stability phase 2 (% remain) [6] | plasma protein binding (% bound) [7] | Molecule | also measured
7 | 85.9 % remain | 95.3 % remain | 33.6 % flux | 69.8 % remain | 99.9 % bound | O=C(O)c1ccc(NCc2c(-c3c(Cl)cccc3C(F)(F)F)noc2-c2cc[nH]c2)cc1 [compound 25, 4-[({3-[2-Chloro-6-(trifluoromethyl)phenyl]-5-(1H-pyrrol-3-yl)-1,2-oxazol-4-yl}methyl)amino]benzoic Acid] | Hill slope ([2]; 0 μM cholesterol): –0.77 ± 0.04; Hill slope ([2]; 0.25 μM cholesterol): –0.86 ± 0.03; Hill slope ([2]; 1.0 μM cholesterol): –1.01 ± 0.03; improvement in potency compared to phenyl 19 [5]: 36 fold
8 | 86.5 % remain | 100 % remain | 50.4 % flux | 92.8 % remain | 100 % bound | O=C(O)c1ccc(NCc2c(-c3c(Cl)cccc3C(F)(F)F)noc2-c2ccco2)cc1 [compound 23, 4-[({3-[2-Chloro-6-(trifluoromethyl)phenyl]-5-(furan-2-yl)-1,2-oxazol-4-yl}methyl)amino]benzoic Acid] | improvement in potency compared to phenyl 19 [5]: 9 fold
